Results reported in patent publication US7034208B1, “Ahas inhibiting herbicide resistant wheat and method for selection thereof” (BASF Aktiengellschaft, priority 1991, dated 2006).

Columns and labels:
[1] = system: wheat seeds; test: Seed soak screen (Example 1, Step 1, Experiments 1-4); type: in vivo
Procedure: The seeds are rinsed in sterile distilled water and then soaked in a herbicide concentration for a set period of time, as described below. Sets of twenty-five seeds are placed into 25 ml of the herbicide solution described below in a sterile 100×15 mm plastic petri dish and soaked for the designated time. The seeds are rinsed with water, dried with paper towels and planted (25 seeds/flat) approximately ½″ deep in 6×8 inch peat flats containing a moist, sterile, artificial soil, Metro Mix 350™ (Grace Company, Cambridge, Mass.). The treatments are evaluated at four weeks after treatment. The herbicides, rates and time periods evaluated are described below:
Each treatment is replicated four times.
Each treatment is replicated two times.
The protocol is as described above except that 35 seeds are soaked per petri dish; 25 seeds are still planted per flat. This experiment is repeated twice.

[2] = system: AHAS (acetohydroxyacid synthase); test: AHAS enzyme assay, Initial Assay (M3 Plants); type: biochemical, wheat
Procedure: Herbicide Application: M3 plants from the four initial mutant plants (FS1, FS2, FS3 and FS4), are tested for metabolic AHAS (acetohydroxyacid synthase) activity. […] When these plants are three weeks old, two plants of each mutant selection, FS1-FS4, receive a second application of PURSUIT™ at 62.5 g/ha while two of each selection are left unsprayed. Sprayed and unsprayed susceptible Fidel plants are also included in this experiment. […] Compound 9 is 2-acetamido-2,3-dimethyl-N-(p-tolylsulfonyl)butyramide, and is described in U.S. Pat. No. 4,883,914.
Enzyme Extraction: For the extraction of AHAS, 10 grams of tissue are powdered in liquid nitrogen and then homogenized in 100 mM potassium phosphate buffer (pH 7.5) containing 10 mM pyruvate, 5 mM MgCl2, 5 uM EDTA, 100 uM FAD, 1 mM valine, 1 mM leucine, 10% glycerol, and 10 mM cysteine. The homogenate is filtered through a nylon cloth (53 uM mesh) and centrifuged at 25,000 g for 20 minutes. […]
AHAS Assay: AHAS activity is measured by estimation of the product, acetolactate, after conversion by decarboxylation in the presence of acid to acetoin. […] The acetoin formed is determined by incubating with creatine (0.17%) and 1-napthol (1.7% in 4N NaOH) by the method of Westerfield (Westerfield, W. W., J. Biol. Chem., 161, 495-502 (1945)). […] The absorption of color complex is measured at 520 nm. […]

[3] = system: testcross progeny Fidel x (Fidel/FS1-FS4); test: Genetic Condition Studies Experiment 3, testcrosses back to Fidel; type: in vivo, wheat; details: out of 49 test-cross progeny sprayed; 200 g/ha; rated three and one-half weeks later
Description: Experiment 3: Testcrosses of the F1 hybrids (described in Experiment 1) back to Fidel are sprayed with 200 g/ha of PURSUIT™. The following testcrosses are planted in 6 inch azalea pots in Metro Mix 350™. The number of pots planted per cross is indicated by the number after the cross:
Approximately one month later, the plants are sprayed (except for Fidel). PURSUIT™ (200 g/ha) is applied as previously described. The plants are rated three and one-half weeks later.

[4] = system: wheat selection FS4 and Fidel; test: Field Trial II; type: in vivo; details: resistant selection FS4; postemergent; six weeks after treatment

CCc1cnc(C2=NC(C)(C(C)C)C(=O)N2)c(C(=O)O)c1 (stereo not shown) [PURSUIT, 5-ethyl-2-(4-isopropyl-4-methyl-5-oxo-2-imidazolin-2-yl)-nicotinic acid]
concentration that prevents the survival of potential false positives ([1]; seed soak for 72 hours): 1000 µM | concentration that prevents the survival of potential false positives ([1]; seed soak for 96 hours): 750 µM | resistance of AHAS to inhibition ([2]; FS1-FS4 M3 plants sprayed with 62.5 g/ha PURSUIT, compared to sprayed wild type): dramatic increase in the AHAS resistance | resistance of AHAS to inhibition ([2]; resistant wheat lines, unsprayed M3 plants): weak resistance | test-cross progeny killed [3]: 20 | test-cross progeny that survive [3]: 29 | effect on final plant height [4]: no effect
